Measurements as given in patent US12600726B2, “Antagonists of the muscarinic acetylcholine receptor M4” (Vanderbilt University, priority 2017, dated 2026).

Assays:
[1] = molecular target: T1, Human M4 (Homo sapiens, UniProt P08173); assay: mAChR M4 cell-based functional calcium flux assay (human M4/Gqi5/CHO cells); conditions: for Emin (human M4): % ACh maximum at 30 μM; for IC50: decrease of the response to an EC80 concentration of acetylcholine
T1 construct: expressed in transfected cells; host or cells: CHO-K1 (ATCC), stably expressing M4 and Gqi5
T1 sequence (P08173 1-479): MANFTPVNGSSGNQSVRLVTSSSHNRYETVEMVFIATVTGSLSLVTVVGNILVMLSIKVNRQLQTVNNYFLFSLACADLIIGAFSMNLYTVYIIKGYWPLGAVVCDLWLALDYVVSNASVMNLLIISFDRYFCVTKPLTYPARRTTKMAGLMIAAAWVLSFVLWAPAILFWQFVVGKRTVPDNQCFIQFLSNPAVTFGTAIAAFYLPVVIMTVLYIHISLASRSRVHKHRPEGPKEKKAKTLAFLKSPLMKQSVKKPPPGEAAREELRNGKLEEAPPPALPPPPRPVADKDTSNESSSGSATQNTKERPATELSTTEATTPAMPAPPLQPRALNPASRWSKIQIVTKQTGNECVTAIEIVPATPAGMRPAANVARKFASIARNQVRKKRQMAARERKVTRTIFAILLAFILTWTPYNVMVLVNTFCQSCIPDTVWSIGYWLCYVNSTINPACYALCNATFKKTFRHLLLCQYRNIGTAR
Method in brief: (§1)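 CHO-K1 cells stably co-expressing M4 of the given species with chimeric Gqi5 were loaded with Fluo-4 AM and read for calcium flux. Compounds (10-point, 1:3 dilutions) were added first, followed by an acetylcholine EC20 at 143 s and an EC80 at 268 s. IC50 reflects the concentration-dependent fall in the EC80 response, fitted with a four-parameter logistic.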

[2] = molecular target: T2, Rat M4 (Rattus norvegicus, UniProt P08485); assay: mAChR M4 cell-based functional calcium flux assay (rat M4/Gqi5/CHO cells); conditions: for Emin (rat M4): % ACh maximum at 30 μM; for IC50: decrease of the response to an EC80 concentration of acetylcholine
T2 construct: expressed in transfected cells; host or cells: CHO-K1 (ATCC), stably expressing M4 and Gqi5
T2 sequence (P08485 1-478): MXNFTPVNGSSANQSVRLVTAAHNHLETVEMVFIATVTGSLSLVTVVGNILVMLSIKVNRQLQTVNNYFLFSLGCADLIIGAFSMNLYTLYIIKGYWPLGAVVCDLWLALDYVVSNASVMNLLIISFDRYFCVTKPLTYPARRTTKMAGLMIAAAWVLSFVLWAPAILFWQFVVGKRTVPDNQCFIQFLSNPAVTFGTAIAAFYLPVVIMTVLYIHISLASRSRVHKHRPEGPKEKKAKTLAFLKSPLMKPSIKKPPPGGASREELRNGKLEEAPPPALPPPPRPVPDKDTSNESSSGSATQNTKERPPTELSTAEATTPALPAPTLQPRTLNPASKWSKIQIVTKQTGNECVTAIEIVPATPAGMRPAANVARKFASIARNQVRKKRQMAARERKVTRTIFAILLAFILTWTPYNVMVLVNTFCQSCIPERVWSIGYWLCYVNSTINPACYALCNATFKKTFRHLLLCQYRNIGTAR
Method in brief: as §1

Row | SMILES | Emin (human M4) [1] [%] | IC50 [1] [nM] | Emin (rat M4) [2] [%] | IC50 [2] [nM]
1 | C1=CC2CC1CC2CN1CCC2(CC1)CC2CNc1ccc(N2CCOCC2)nn1 (stereo not drawn) [Compound 82, N-[[6-(5-bicyclo[2.2.1]hept-2-enylmethyl)-6-azaspiro[2.5]octan-2-yl]methyl]-6-morpholino-pyridazin-3-amine] | 3 | 5.06 | 6 | 48.2
2 | c1cc(N2CCOCC2)nnc1NCC1CC12CCN(CC1CCCCC1)CC2 (stereo not drawn) [Compound 83, N-[[6-(cyclohexylmethyl)-6-azaspiro[2.5]octan-2-yl]methyl]-6-morpholino-pyridazin-3-amine] | 6 | 33.5 | 7 | 362
3 | c1cc(N2CCOCC2)nnc1NCC1CC12CCN(CC13CC4CC(CC(C4)C1)C3)CC2 (stereo not drawn) [Compound 84, N-[[6-(1-adamantylmethyl)-6-azaspiro[2.5]octan-2-yl]methyl]-6-morpholino-pyridazin-3-amine] | 5 | 33.9 | 3 | 257
4 | Cc1nn(C)cc1-c1nnc(NCC2CC23CCN(Cc2ccccc2)CC3)c2ccccc12 (stereo not drawn) [Compound 88, N-[(6-benzyl-6-azaspiro[2.5]octan-2-yl)methyl]-4-(1,3-dimethylpyrazol-4-yl)phthalazin-1-amine] | 5 | 265 | 6 | 1250
5 | Cc1nn(C)cc1-c1nnc(NCC2CC23CCN(CC24CC5CC(CC(C5)C2)C4)CC3)c2ccccc12 (stereo not drawn) [Compound 89, N-[[6-(1-adamantylmethyl)-6-azaspiro[2.5]octan-2-yl]methyl]-4-(1,3-dimethylpyrazol-4-yl)phthalazin-1-amine] | 3 | 170 | 4 | 350
6 | Fc1ccc(Cl)c(-c2ccc(NC[C@@H]3CC34CCN(CC3CCOCC3)CC4)nn2)c1 [Compound 107, (R)-6-(2-chloro-5-fluoro-phenyl)-N-[[6-(tetrahydropyran-4-ylmethyl)-6-azaspiro[2.5]octan-2-yl]methyl]pyridazin-3-amine] | 4 | 1.8 | 6 | 12.9
7 | Fc1ccc(Cl)c(-c2ccc(NC[C@@H]3CC34CCN(CC3CC5C=CC3C5)CC4)nn2)c1 (stereo partly drawn) [Compound 108, N-(((1R)-6-(bicyclo[2.2.1]hept-5-en-2-ylmethyl)-6-azaspiro[2.5]octan-1-yl)methyl)-6-(2-chloro-5-fluorophenyl)pyridazin-3-amine] | 2 | 9.89 | 3 | 48.1
8 | Fc1ccc(Cl)c(-c2ccc(NC[C@@H]3CC34CCN(CC3CCCCCC3)CC4)nn2)c1 [Compound 109, (R)-6-(2-chloro-5-fluorophenyl)-N-((6-(cycloheptylmethyl)-6-azaspiro[2.5]octan-1-yl)methyl)pyridazin-3-amine] | 4 | 50.6 | 3 | 92.1
9 | Fc1ccc(Cl)c(-c2ccc(NC[C@@H]3CC34CCN(CC3CC5CCC3O5)CC4)nn2)c1 (stereo partly drawn) [Compound 110, N-(((1R)-6-((7-oxabicyclo[2.2.1]heptan-2-yl)methyl)-6-azaspiro[2.5]octan-1-yl)methyl)-6-(2-chloro-5-fluorophenyl)pyridazin-3-amine] | 3 | 2.29 | 4 | 39.2
10 | Fc1ccc(Cl)c(-c2ccc(NC[C@@H]3CC34CCN(CC35CC6CC(CC(C6)C3)C5)CC4)nn2)c1 [Compound 115, N-[[(2R)-6-(1-adamantylmethyl)-6-azaspiro[2.5]octan-2-yl]methyl]-6-(2-chloro-5-fluoro-phenyl)pyridazin-3-amine] | 2 | 69.8 | 3 | 152

Continued, values first:

Row | Emin (human M4) [1] [%] | IC50 [1] [nM] | Emin (rat M4) [2] [%] | IC50 [2] [nM] | SMILES
11 | 6 | 2.04 | 4 | 7.53 | CC(=O)Nc1ccc(-c2ccc(NC[C@@H]3CC34CCN(CCC(C)(C)C)CC4)nn2)cc1 [Compound 111, N-[4-[6-[[(2R)-6-(3,3-dimethylbutyl)-6-azaspiro[2.5]octan-2-yl]methylamino]pyridazin-3-yl]phenyl]acetamide]
12 | 2 | 25.7 | 5 | 223 | Cc1cccnc1CN1CCC2(CC1)C[C@H]2CNc1ccc(-c2cc(F)ccc2Cl)nn1 [Compound 114, 6-(2-chloro-5-fluoro-phenyl)-N-[[(2R)-6-[(3-methyl-2-pyridyl)methyl]-6-azaspiro[2.5]octan-2-yl]methyl]pyridazin-3-amine]
13 | 5 | 11.9 | 4 | 15 | CC(=O)Nc1ccc(-c2nnc(NCC3CC34CCN(CCC(C)(C)C)CC4)c(C)c2C)cc1 (stereo not drawn) [Compound 116, N-[4-[6-[[6-(3,3-dimethylbutyl)-6-azaspiro[2.5]octan-2-yl]methylamino]-4,5-dimethyl-pyridazin-3-yl]phenyl]acetamide]
14 | 5 | 19.7 | 4 | 13.7 | CC(=O)Nc1ccc(-c2nnc(NCC3CC34CCN(CC3CCCCC3)CC4)c(C)c2C)cc1 (stereo not drawn) [Compound 117, N-[4-[6-[[6-(cyclohexylmethyl)-6-azaspiro[2.5]octan-2-yl]methylamino]-4,5-dimethyl-pyridazin-3-yl]phenyl]acetamide]
15 | 4 | 5.85 | 5 | 16.7 | CC(=O)Nc1ccc(-c2ccc(NC[C@@H]3CC34CCN(CC3CCCCC3)CC4)nn2)cc1 [Compound 118, N-[4-[6-[[(2R)-6-(cyclohexylmethyl)-6-azaspiro[2.5]octan-2-yl]methylamino]pyridazin-3-yl]phenyl]acetamide]
16 | 3 | 8.18 | 5 | 16.5 | CC(=O)Nc1ccc(-c2ccc(NC[C@@H]3CC34CCN(CC3CCCCCC3)CC4)nn2)cc1 [Compound 119, N-[4-[6-[[(2R)-6-(cycloheptylmethyl)-6-azaspiro[2.5]octan-2-yl]methylamino]pyridazin-3-yl]phenyl]acetamide]
17 | 4 | 28.7 | 3 | 35.7 | CC(=O)Nc1ccc(-c2ccc(NC[C@@H]3CC34CCN(CC35CC6CC(CC(C6)C3)C5)CC4)nn2)cc1 [Compound 120, N-[4-[6-[[(2R)-6-(1-adamantylmethyl)-6-azaspiro[2.5]octan-2-yl]methylamino]pyridazin-3-yl]phenyl]acetamide]
18 | 3 | 68.2 | 9 | 43.7 | CC(=O)Nc1ccc(-c2ccc(NC[C@@H]3CC34CCN(CC3CCOCC3)CC4)nn2)cc1 [Compound 121, N-[4-[6-[[(2R)-6-(tetrahydropyran-4-ylmethyl)-6-azaspiro[2.5]octan-2-yl]methylamino]pyridazin-3-yl]phenyl]acetamide]
19 | 12 | 1410 | 12 | 320 | CC(=O)Nc1ccc(-c2ccc(NC[C@@H]3CC34CCN(Cc3ncccc3C)CC4)nn2)cc1 [Compound 122, N-[4-[6-[[(2R)-6-[(3-methyl-2-pyridyl)methyl]-6-azaspiro[2.5]octan-2-yl]methylamino]pyridazin-3-yl]phenyl]acetamide]
20 | 5 | 575 | 4 | 207 | CC(=O)Nc1ccc(-c2ccc(NC[C@@H]3CC34CCN(Cc3ccc(F)cc3)CC4)nn2)cc1 [Compound 123, N-[4-[6-[[(2R)-6-[(4-fluorophenyl)methyl]-6-azaspiro[2.5]octan-2-yl]methylamino]pyridazin-3-yl]phenyl]acetamide]
21 | 4 | 34.3 | 4 | 56.3 | CC(=O)Nc1ccc(-c2ccc(NC[C@H]3CC34CCN(CCC(C)(C)C)CC4)nn2)cc1 [Compound 124, N-[4-[6-[[(2S)-6-(3,3-dimethylbutyl)-6-azaspiro[2.5]octan-2-yl]methylamino]pyridazin-3-yl]phenyl]acetamide]
